# Key:
# Assay in all cases: relative viability (nuclei count vs DMSO), 5 days (fraction); higher = more cells survive
# Seliciclib + Alpelisib = compound: CC[C@H](CO)Nc1nc(NCc2ccccc2)c2ncn(C(C)C)c2n1 [Seliciclib] + Cc1nc(NC(=O)N2CCC[C@H]2C(N)=O)sc1-c1ccnc(C(C)(C)C(F)(F)F)c1 [Alpelisib] (partner 2 µM)
# In short: (§1)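 Cells from lung cancer lines were seeded into 1536-well plates and, one day later, dosed by pin tool. Treatments were either a single drug or a fixed dose of an anchor drug with five library-drug doses (not always all listed) in √10 steps. After 5 days, nuclei were stained in a one-step fixation (final 0.05% Triton X-100, 1% formaldehyde, 1 ug/ml Hoechst) and counted on 4× images, and relative viability is the treated-to-vehicle nuclei ratio, as the median of duplicate plates.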
# Seliciclib + Dasatinib = compound: CC[C@H](CO)Nc1nc(NCc2ccccc2)c2ncn(C(C)C)c2n1 [Seliciclib] + Cc1nc(Nc2ncc(C(=O)Nc3c(C)cccc3Cl)s2)cc(N2CCN(CCO)CC2)n1 [Dasatinib] (partner 0.075 µM)
# In short: as §1
# Seliciclib + Tozasertib = compound: CC[C@H](CO)Nc1nc(NCc2ccccc2)c2ncn(C(C)C)c2n1 [Seliciclib] + Cc1cc(Nc2cc(N3CCN(C)CC3)nc(Sc3ccc(NC(=O)C4CC4)cc3)n2)n[nH]1 [Tozasertib] (partner 0.1 µM)
# In short: as §1
# Seliciclib + Luminespib = compound: CC[C@H](CO)Nc1nc(NCc2ccccc2)c2ncn(C(C)C)c2n1 [Seliciclib] + CCNC(=O)c1noc(-c2cc(C(C)C)c(O)cc2O)c1-c1ccc(CN2CCOCC2)cc1 [Luminespib] (partner 0.01 µM)
# In short: as §1
Cell Line,relative viability (Seliciclib + Alpelisib; first compound 0.08 µM),relative viability (Seliciclib + Alpelisib; first compound 0.253 µM),relative viability (Seliciclib + Alpelisib; first compound 0.8 µM),relative viability (Seliciclib + Alpelisib; first compound 2.53 µM),relative viability (Seliciclib + Alpelisib; first compound 8 µM),relative viability (Seliciclib + Dasatinib; first compound 0.08 µM),relative viability (Seliciclib + Dasatinib; first compound 0.253 µM),relative viability (Seliciclib + Dasatinib; first compound 0.8 µM),relative viability (Seliciclib + Dasatinib; first compound 2.53 µM),relative viability (Seliciclib + Dasatinib; first compound 8 µM),relative viability (Seliciclib + Tozasertib; first compound 0.08 µM),relative viability (Seliciclib + Tozasertib; first compound 0.253 µM),relative viability (Seliciclib + Tozasertib; first compound 0.8 µM),relative viability (Seliciclib + Tozasertib; first compound 2.53 µM),relative viability (Seliciclib + Tozasertib; first compound 8 µM),relative viability (Seliciclib + Luminespib; first compound 0.08 µM),relative viability (Seliciclib + Luminespib; first compound 0.253 µM),relative viability (Seliciclib + Luminespib; first compound 0.8 µM),relative viability (Seliciclib + Luminespib; first compound 2.53 µM),relative viability (Seliciclib + Luminespib; first compound 8 µM)
201T,1.01,1.02,0.997,0.997,0.966,0.502,0.654,0.589,0.385,0.548,0.948,0.959,0.893,0.964,0.745,1.02,1.1,0.976,0.999,1.03
A-427,1.05,1.16,1.12,1.08,0.927,0.612,0.691,0.687,0.735,0.738,0.245,0.202,0.187,0.2,0.192,0.905,0.744,0.926,0.873,0.902
ABC-1,0.819,0.888,0.775,0.964,0.931,0.536,0.566,0.598,0.524,0.509,0.149,0.131,0.189,0.186,0.207,0.447,0.753,0.478,0.378,0.396
BEN,1.13,,0.844,1.12,0.862,0.311,0.313,0.375,0.271,0.322,0.451,0.481,0.585,0.502,0.468,0.344,0.439,0.662,0.259,0.251
CAL-12T,1.11,,0.86,1,0.946,0.501,0.738,0.362,0.23,0.284,0.297,0.313,0.294,0.247,0.234,0.351,0.411,0.363,0.388,0.313
COR-L23,0.708,0.868,0.764,0.78,0.538,0.457,0.644,0.484,0.342,0.383,0.224,0.234,0.187,0.164,0.154,0.658,0.67,0.579,0.871,0.556
COR-L 105,0.994,0.808,1.05,1.04,0.748,0.377,0.405,0.324,0.311,0.37,0.423,0.321,0.366,0.346,0.436,1.07,0.428,0.817,0.859,0.532
Calu-6,0.942,0.993,1.04,1.01,0.809,,,,,,,,,,,,,,,
ChaGo-K-1,,,,,,0.588,0.637,0.661,0.478,0.495,0.241,0.225,0.213,0.222,0.238,0.587,0.362,0.711,0.536,0.603
EKVX,0.844,0.9,0.799,0.794,0.674,0.53,0.55,0.573,0.47,0.493,,0.453,0.372,0.363,0.322,,1.03,0.794,0.821,0.642
EMC-BAC-2,0.759,0.731,0.739,0.774,0.703,0.305,0.288,0.399,0.218,0.277,0.257,0.242,0.318,0.274,0.257,1.15,1.02,1.15,1.16,1.11
EPLC-272H,0.968,0.847,0.795,1.04,0.895,0.329,0.298,0.408,0.183,0.266,0.247,0.231,0.297,0.181,0.153,0.297,0.204,0.214,0.177,0.231
H3255,0.608,0.667,0.721,0.806,0.587,0.341,0.447,0.335,0.279,0.324,0.588,0.645,0.585,0.507,0.604,0.868,1.05,0.94,0.833,0.917
HARA,0.892,0.911,0.747,0.855,0.776,0.288,0.274,0.319,0.228,0.245,0.0937,0.0958,0.111,0.782,0.0956,0.727,0.764,0.65,1.12,0.581
HCC-15,0.956,0.954,0.846,0.902,0.712,0.645,0.633,0.461,0.512,0.448,0.403,0.502,0.372,0.443,0.331,0.275,0.386,0.304,0.33,0.309
HCC-44,0.845,0.834,0.798,0.74,0.707,,,,,,0.858,1.19,0.969,0.861,0.791,0.913,1.07,1.01,0.997,0.726
HCC-78,0.375,0.358,0.329,0.285,0.339,0.427,0.416,0.371,0.259,0.28,0.367,0.405,0.411,0.39,0.381,,,,,
HCC-366,0.367,0.302,0.342,0.344,0.371,0.565,0.376,0.57,0.381,0.473,0.135,0.0662,0.155,0.387,0.0931,,,,,
HCC-827,1.01,1.01,1,1.04,0.784,0.359,0.298,0.258,0.324,0.236,0.415,0.413,0.42,0.383,0.324,0.519,0.589,0.55,0.829,0.588

Cell Line,relative viability (Seliciclib + Alpelisib; first compound 0.08 µM),relative viability (Seliciclib + Alpelisib; first compound 0.253 µM),relative viability (Seliciclib + Alpelisib; first compound 0.8 µM),relative viability (Seliciclib + Alpelisib; first compound 2.53 µM),relative viability (Seliciclib + Alpelisib; first compound 8 µM),relative viability (Seliciclib + Dasatinib; first compound 0.08 µM),relative viability (Seliciclib + Dasatinib; first compound 0.253 µM),relative viability (Seliciclib + Dasatinib; first compound 0.8 µM),relative viability (Seliciclib + Dasatinib; first compound 2.53 µM),relative viability (Seliciclib + Dasatinib; first compound 8 µM),relative viability (Seliciclib + Tozasertib; first compound 0.08 µM),relative viability (Seliciclib + Tozasertib; first compound 0.253 µM),relative viability (Seliciclib + Tozasertib; first compound 0.8 µM),relative viability (Seliciclib + Tozasertib; first compound 2.53 µM),relative viability (Seliciclib + Tozasertib; first compound 8 µM),relative viability (Seliciclib + Luminespib; first compound 0.08 µM),relative viability (Seliciclib + Luminespib; first compound 0.253 µM),relative viability (Seliciclib + Luminespib; first compound 0.8 µM),relative viability (Seliciclib + Luminespib; first compound 2.53 µM),relative viability (Seliciclib + Luminespib; first compound 8 µM)
HOP-62,1.03,0.811,0.942,1.05,0.829,0.661,0.58,0.578,0.603,0.653,0.388,0.354,0.38,0.377,0.244,0.863,0.933,0.919,1,0.851
IA-LM,0.645,0.935,0.599,0.979,0.556,,,,,,,,,,,,,,,
LC-2-ad,0.852,0.852,0.4,0.899,0.635,0.638,0.802,0.63,0.326,0.459,0.55,0.479,0.429,0.426,0.438,0.895,1.02,0.988,0.985,0.834
LCLC-97TM1,0.243,0.308,0.382,,0.23,0.758,0.965,0.732,0.333,0.704,0.355,0.248,0.243,0.168,0.153,0.843,0.81,0.449,0.684,0.469
LCLC-103H,0.992,0.957,0.869,1.05,0.906,0.535,0.499,0.57,0.276,0.481,0.443,0.583,0.532,0.434,0.399,1.02,0.958,0.763,0.993,0.774
LK-2,1.05,0.968,0.955,1.17,0.822,0.305,0.414,0.436,0.226,0.217,0.203,0.154,0.17,0.175,0.168,0.186,0.236,0.164,0.174,0.253
LOU-NH91,0.687,0.689,0.661,0.653,0.515,0.493,0.515,0.535,0.413,0.427,0.638,0.686,0.583,0.62,0.515,0.318,0.332,0.293,0.305,0.276
LU99A,0.491,0.518,0.452,0.359,0.416,0.611,0.521,0.588,0.262,0.507,0.282,0.29,0.32,0.209,0.205,0.267,0.196,0.209,0.191,0.268
LXF-289,1.01,1.09,1.02,1.02,0.891,0.245,0.202,0.248,0.128,0.221,0.189,0.192,0.203,0.18,0.158,0.603,0.778,0.545,0.642,0.56
NCI-H23,0.612,0.447,0.603,0.504,0.562,0.855,0.785,0.756,0.296,0.643,0.424,0.368,0.379,0.426,0.322,0.202,0.206,0.209,0.211,0.242
NCI-H322M,0.87,0.876,0.692,0.822,0.73,0.257,0.267,0.263,0.232,0.219,0.49,0.497,0.474,0.462,0.435,0.855,0.883,0.794,0.786,0.809
NCI-H358,0.789,0.887,0.913,0.741,0.444,0.196,0.153,0.148,0.129,0.137,0.11,0.0892,0.112,0.104,0.11,0.31,0.385,0.21,,0.186
NCI-H522,,,,,,1.06,0.827,1.05,0.82,0.834,0.711,0.523,0.547,0.49,0.614,1.05,0.954,1.15,1.12,0.938
NCI-H1563,0.952,0.872,0.954,0.927,0.882,0.536,0.525,0.503,0.416,0.428,,,,,,0.479,0.518,0.526,0.49,0.453
NCI-H1650,,,,,,0.3,0.344,0.304,0.247,0.285,0.387,0.437,0.364,0.422,0.318,0.195,0.185,0.216,0.199,0.193
NCI-H1703,0.322,0.421,0.288,0.354,0.229,,,,,,,,,,,,,,,
NCI-H1792,0.765,0.725,0.719,0.682,0.633,0.754,0.788,0.766,,0.743,,,,,,0.43,0.464,0.364,,0.35
SW 900,,,,,,0.541,0.593,0.661,0.397,0.559,0.79,0.689,0.488,0.401,0.307,0.148,0.147,0.14,0.17,0.168

# — the supplement of paper PMC10307832
